The subject of assay [1] is NCI-H460. The assay is described as follows: Inhibition of Dvl PDZ domain interaction with Fz protein in human NCI-H460 cells assessed as induction of apoptosis at 10 uM after 3 days by annexin V-FITC staining-based flow cytometry (reference value: 7.59 to 10.24%). The class given is cell-based. Details: scale not given: the % may be the effect or the level left. For orientation: Flow cytometry measures light scatter and fluorescence of single cells or particles in a stream.

Assay [2] has as its system LOX. In words: Inhibition of Dvl PDZ domain interaction with Fz protein in human LOX cells assessed as induction of apoptosis at 10 uM after 3 days by annexin V-FITC staining-based flow cytometry (reference value: 8.81 to 10.85%). The format is cell-based. Details: scale not given: the % may be the effect or the level left.
Assay [3] in a line: Antitumor activity against human NCI-H460 cells xenografted in immune deficient nude mouse assessed as tumor growth inhibition at 50 mg/kg, ip administered for 14 days measured after 2 weeks post last dose relative to control. The class given is functional. Particulars: 336 h, read-out: TGI. (In xenograft studies the graft and the host belong to different species.)
Assay [4] concerns the target T1, Membrane-associated guanylate kinase, WW and PDZ domain-containing protein 3 (Homo sapiens) (UniProt Q5TCQ9).
T1 sequence (whole entry): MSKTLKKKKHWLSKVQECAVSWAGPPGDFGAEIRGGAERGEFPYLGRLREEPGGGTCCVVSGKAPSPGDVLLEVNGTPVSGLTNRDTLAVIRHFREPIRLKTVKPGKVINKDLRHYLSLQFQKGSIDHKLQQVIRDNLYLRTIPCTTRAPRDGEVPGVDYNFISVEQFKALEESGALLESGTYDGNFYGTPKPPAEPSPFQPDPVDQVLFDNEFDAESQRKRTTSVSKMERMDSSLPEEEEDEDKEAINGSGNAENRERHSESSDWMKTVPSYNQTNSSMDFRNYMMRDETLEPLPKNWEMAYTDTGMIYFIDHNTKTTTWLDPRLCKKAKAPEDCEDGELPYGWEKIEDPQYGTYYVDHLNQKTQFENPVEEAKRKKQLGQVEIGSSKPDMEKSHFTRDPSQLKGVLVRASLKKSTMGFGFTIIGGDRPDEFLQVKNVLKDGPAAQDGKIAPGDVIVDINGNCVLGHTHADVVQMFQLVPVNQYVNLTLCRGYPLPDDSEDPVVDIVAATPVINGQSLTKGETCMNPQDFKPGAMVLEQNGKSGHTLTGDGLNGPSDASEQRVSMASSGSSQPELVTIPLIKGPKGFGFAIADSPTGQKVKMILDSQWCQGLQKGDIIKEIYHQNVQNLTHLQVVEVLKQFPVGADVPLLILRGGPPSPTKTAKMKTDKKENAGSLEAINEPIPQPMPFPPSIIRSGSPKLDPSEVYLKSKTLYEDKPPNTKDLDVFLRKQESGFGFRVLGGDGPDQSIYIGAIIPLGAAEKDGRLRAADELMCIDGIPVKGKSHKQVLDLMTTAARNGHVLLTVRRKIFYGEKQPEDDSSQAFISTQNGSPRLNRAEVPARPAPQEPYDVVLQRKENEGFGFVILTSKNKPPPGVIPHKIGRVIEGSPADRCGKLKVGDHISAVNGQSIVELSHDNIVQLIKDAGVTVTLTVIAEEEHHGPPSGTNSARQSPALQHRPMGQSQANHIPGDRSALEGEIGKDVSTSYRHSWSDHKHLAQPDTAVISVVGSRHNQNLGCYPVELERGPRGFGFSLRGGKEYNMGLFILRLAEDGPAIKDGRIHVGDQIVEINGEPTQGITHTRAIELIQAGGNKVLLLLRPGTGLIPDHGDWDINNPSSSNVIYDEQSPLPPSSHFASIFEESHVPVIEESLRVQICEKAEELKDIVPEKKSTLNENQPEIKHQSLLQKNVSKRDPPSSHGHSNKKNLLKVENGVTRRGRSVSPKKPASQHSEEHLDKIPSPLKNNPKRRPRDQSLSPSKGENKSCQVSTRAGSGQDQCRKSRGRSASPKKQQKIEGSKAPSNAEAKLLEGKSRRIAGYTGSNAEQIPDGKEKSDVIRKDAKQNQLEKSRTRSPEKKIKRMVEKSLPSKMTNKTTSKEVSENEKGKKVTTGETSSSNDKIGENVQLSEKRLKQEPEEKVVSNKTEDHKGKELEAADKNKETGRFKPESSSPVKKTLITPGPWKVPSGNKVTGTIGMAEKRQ
The assay is described as follows: Inhibition of fluorescein labeled PFDEDQHTQITWV-COOH interaction with GST-fused MAGI-3 second PDZ domain (unknown origin) expressed in Escherichia coli BL21 (DE3) by fluorescence polarization assay.

The nature of assay [5]: Antitumor activity against human LOX cells xenografted in immune deficient nude mouse assessed as tumor growth inhibition at 50 mg/kg, ip administered for 14 days measured after 2 weeks post last dose relative to control. Particulars: 336 h, read-out: TGI. The class given is functional.

Active and inactive are the calls of the source. No cut-off for these calls is given here.

This note sets out measurements from ChEMBL document CHEMBL3879892, “Small molecule inhibition of PDZ-domain interaction” (2011).

`Cc1cc2[nH]c(C(O)CCc3ccccc3)c(CCc3ccccc3)c2cc1C(=O)O` (centres undefined): the Activity is 36.7% in assay [1] and 34.7% in assay [2].

On to `CCCCC(O)c1[nH]c2cc(C)c(C(=O)O)cc2c1CCc1ccccc1` (centres undefined), for which the Activity is 14.6 to 28.3% in assay [1] and 13.4 to 18.5% in assay [2]. The values for the inhibition in vivo at 50 mg/kg in assay [3] and in assay [5] were 20 to 34% and 66 to 82%, respectively. In addition, in assay [4], the inhibition result is “Active”.

Take `Cc1cc2[nH]c(C(O)c3ccccc3)c(CCCc3ccccc3)c2cc1C(=O)O` (centres undefined): the values for the Activity in assay [1] and in assay [2] were 37% and 65.3%, respectively.
